The test system of data set [1] is BALB/3T3. Description: Antiproliferative activity against mouse fibroblast 3T3 A31 cells. The data set is classed as functional. The conditions noted are these: read-out: ED50 (the source's name).
The test system of data set [2] is T-24. The data set is described as follows: Antiproliferative activity against human bladder carcinoma T24 cells. The conditions noted are these: read-out: ED50 (the source's name). Format: functional.
Data set [3] relates to SV3T3. The data set is described as follows: Antiproliferative activity against virus transformed mouse fibroblast 3T3 SV40 cells. Format: functional. The following applies: read-out: ED50 (the source's name).
Data set [4] concerns HFL1. Description: Antiproliferative activity against human fibroblast HFL1 cells. Format: functional. The following applies: read-out: ED50 (the source's name).
For data set [5], the system named is T-24. The data set is described as follows: Ability to prime Heparan sulfate synthesis in T24 cells at 0.1 mM. Format: functional, Homo sapiens.
Data set [6] can be described thus: Dissociation constant, pKa of the compound. The data set is classed as physicochemical.
In data set [7] the test system is T-24. The data set is described as follows: Induction of apoptosis in T24 cells using TUNEL assay. Format: functional, cell-based. The following applies: Homo sapiens.

SMILES strings stand for the structures. Activity calls are given as the source filed them. No cut-off for these calls is given here. Where only a bound is given, the exact number is not on record here.

For the molecule `Oc1ccc2cc(O[C@@H]3OC[C@@H](O)[C@H](O)[C@H]3O)ccc2c1`, the EC50 was found to be 440 µM in data set [1], 100 µM in data set [2], 320 µM in data set [3] and 500 µM in data set [4]. Moreover, the Activity in data set [5] came to 30%. Moreover, in data set [6], the pKa was determined as 9.63. The result in data set [7] was Active.
For the molecule `Oc1ccc2cccc(O)c2c1`, the values for the EC50 in data set [2] and in data set [4] were less than 10 µM and less than 25 µM, respectively.
Consider `Oc1c(O[C@@H]2OC[C@@H](O)[C@H](O)[C@H]2O)ccc2ccccc12`, for which the EC50 was 120 µM in data set [1], 160 µM in data set [2], 120 µM in data set [3] and 40 µM in data set [4]. In addition, the Activity in data set [5] is reported as 22%. The same molecule gave a pKa in data set [6] of 8.72.
Consider `Oc1cccc2c(O)cccc12`, for which the figures for the EC50 in data set [2] and in data set [4] were less than 10 µM and 20 µM, respectively.
On the same counts, the results for `Oc1ccc2cc(O)ccc2c1` are less than 10 µM and less than 25 µM.
As for `Oc1cccc2cccc(O[C@@H]3OC[C@@H](O)[C@H](O)[C@H]3O)c12`, the EC50 in data set [1] turned out to be 185 µM; in data set [2], 220 µM; in data set [3], 340 µM; in data set [4] it was 180 µM. In addition, the Activity in data set [5] is reported as 27%. In data set [6], this molecule returned a pKa of 10.1.
As for `Oc1ccc2ccccc2c1O`, the EC50 came out at 13 µM in data set [2] and 25 µM in data set [4].
On to `Oc1cccc2ccc(O[C@@H]3OC[C@@H](O)[C@H](O)[C@H]3O)cc12`, for which the EC50 in data set [1] was 160 µM; in data set [2], 420 µM; in data set [3], 510 µM; in data set [4], 330 µM. In data set [5], this molecule came in with an Activity of 27%. In data set [6], this molecule came in with a pKa of 9.29.
For `Oc1cc(O[C@@H]2OC[C@@H](O)[C@H](O)[C@H]2O)cc2ccccc12`, the EC50 came to 410 µM in data set [1], 25 µM in data set [2], 575 µM in data set [3] and 320 µM in data set [4]. Further, in data set [5], the Activity was 20%. This molecule also displayed a pKa in data set [6] of 8.66.
For the molecule `Oc1ccc2c(O[C@@H]3OC[C@@H](O)[C@H](O)[C@H]3O)cccc2c1`, the EC50 in data set [1] is 210 µM; in data set [2] it was 125 µM; in data set [3], more than 500 µM; in data set [4], 370 µM. In data set [5], this molecule yielded an Activity of 13%. In addition, the pKa in data set [6] came to 9.34.
With `Oc1ccc(O)c2ccccc12`, the EC50 was 0.7 µM in data set [2] and 1 µM in data set [4].
On the same counts, the results for `Oc1cc(O)c2ccccc2c1` are 70 µM and 100 µM.
On the same counts, the results for `Oc1ccc2ccc(O)cc2c1` are 30 µM and 70 µM.
Take `Oc1ccc2ccc(O[C@@H]3OC[C@@H](O)[C@H](O)[C@H]3O)cc2c1`: the EC50 in data set [1] stood at 300 µM; in data set [2], 500 µM; in data set [3] it was 460 µM; in data set [4] it was 500 µM. Further, in data set [5], the Activity turned out to be 37%. In data set [6], this molecule yielded a pKa of 9.41.
With `Oc1ccc2ccccc2c1O[C@@H]1OC[C@@H](O)[C@H](O)[C@H]1O`, the EC50 came out at 10 µM in data set [1], 150 µM in data set [2], 65 µM in data set [3] and 80 µM in data set [4]. Further, the Activity in data set [5] was 2%. This molecule also displayed a pKa in data set [6] of 8.63.
With `Oc1cccc2c(O[C@@H]3OC[C@@H](O)[C@H](O)[C@H]3O)cccc12`, the EC50 was more than 500 µM in data set [1], 470 µM in data set [2], more than 500 µM in data set [3] and 500 µM in data set [4]. The same molecule gave an Activity in data set [5] of 29%. The pKa in data set [6] came out at 9.16.
For the molecule `Oc1cccc2cc(O[C@@H]3OC[C@@H](O)[C@H](O)[C@H]3O)ccc12`, the EC50 in data set [1] was more than 500 µM; in data set [2], 600 µM; in data set [3], 430 µM; in data set [4], 500 µM. In data set [5], this molecule showed an Activity of 12%. In addition, the pKa in data set [6] is 9.17.
As to `Oc1ccc(O[C@@H]2OC[C@@H](O)[C@H](O)[C@H]2O)c2ccccc12`, the EC50 in data set [1] amounted to 165 µM; in data set [2], 1 µM; in data set [3], 105 µM; in data set [4] it was 6 µM. Besides, the Activity in data set [5] is 12%. Also, the pKa in data set [6] amounted to 9.4.
As to `Oc1cc2ccccc2cc1O[C@@H]1OC[C@@H](O)[C@H](O)[C@H]1O`, the EC50 was determined as 25 µM in data set [1], 400 µM in data set [2], 180 µM in data set [3] and 190 µM in data set [4]. In data set [5], this molecule registered an Activity of 28%. The molecule further registered a pKa in data set [6] of 8.76.
As to `Oc1cccc2cccc(O)c12`, the EC50 in data set [2] came to 10 µM; in data set [4] it was 20 µM.
Regarding `O[C@@H]1[C@@H](O)[C@H](Oc2ccc3ccccc3c2)OC[C@H]1O`, the outcome in data set [7] was inactive.
Consider `Oc1ccc2c(O)cccc2c1`, for which the EC50 in data set [2] worked out at 20 µM; in data set [4], 70 µM.
For the molecule `Oc1cc(O[C@@H]2OC[C@@H](O)[C@H](O)[C@H]2O)c2ccccc2c1`, the EC50 turned out to be 130 µM in data set [1], 100 µM in data set [2], 275 µM in data set [3] and 240 µM in data set [4]. The Activity in data set [5] is 14%. The molecule also had a pKa in data set [6] of 9.22.
Regarding `Oc1ccc2cccc(O[C@@H]3OC[C@@H](O)[C@H](O)[C@H]3O)c2c1`, the EC50 was determined as 260 µM in data set [1], 370 µM in data set [2], 550 µM in data set [3] and 370 µM in data set [4]. This molecule displayed an Activity in data set [5] of 15%. In addition, in data set [6], the pKa amounted to 9.35.
On to `Oc1cc2ccccc2cc1O`, for which the EC50 in data set [2] came out at 30 µM; in data set [4], 40 µM.

The values above are taken from ChEMBL document CHEMBL1138989, “Selective antiproliferative activity of hydroxynaphthyl-beta-D-xylosides” (J Med Chem, 2006).
